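GI50: concentration for 50% inhibition of growth. The concentration for full growth arrest is given as TGI.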
Experiments:
Test in all cases: inhibition of tumour cell growth, NCI panel, 384-well format
COLO 205 colon = system: COLO 205 colon
LOX IMVI melanoma = system: LOX IMVI melanoma
SR leukemia = system: SR leukemia
K-562 leukemia = system: K-562 leukemia
ACHN renal = system: ACHN renal
U251 glioblastoma = system: U251 glioblastoma
SK-MEL-5 melanoma = system: SK-MEL-5 melanoma
NCI-H226 lung = system: NCI-H226 lung
IGROV1 ovarian = system: IGROV1 ovarian
OVCAR-8 ovarian = system: OVCAR-8 ovarian
HL-60(TB) leukemia = system: HL-60(TB) leukemia
SF-295 CNS = system: SF-295 CNS
MCF7 breast = system: MCF7 breast
RXF 393 renal = system: RXF 393 renal
UACC-62 melanoma = system: UACC-62 melanoma
KM12 colon = system: KM12 colon
A498 renal = system: A498 renal
HOP-62 NSCLC = system: HOP-62 NSCLC
BT-549 breast = system: BT-549 breast
HCC-2998 colon = system: HCC-2998 colon
A549 NSCLC = system: A549 NSCLC
SF-268 CNS = system: SF-268 CNS
PC-3 prostate = system: PC-3 prostate
786-0 renal = system: 786-0 renal
MALME-3M melanoma = system: MALME-3M melanoma
OVCAR-3 ovarian = system: OVCAR-3 ovarian
SF-539 CNS = system: SF-539 CNS
CAKI-1 renal = system: CAKI-1 renal
SK-MEL-2 melanoma = system: SK-MEL-2 melanoma
SW-620 colon = system: SW-620 colon
DU-145 prostate = system: DU-145 prostate
MDA-MB-435 melanoma = system: MDA-MB-435 melanoma
UACC-257 melanoma = system: UACC-257 melanoma
OVCAR-4 ovarian = system: OVCAR-4 ovarian
SK-OV-3 ovarian = system: SK-OV-3 ovarian
NCI-H460 NSCLC = system: NCI-H460 NSCLC
MDA-MB-468 breast = system: MDA-MB-468 breast
NCI-H322M lung = system: NCI-H322M lung
NCI-H23 lung = system: NCI-H23 lung
NCI-H522 lung = system: NCI-H522 lung
CCRF-CEM leukemia = system: CCRF-CEM leukemia
SK-MEL-28 melanoma = system: SK-MEL-28 melanoma
MDA-MB-231 breast = system: MDA-MB-231 breast
HT29 colon = system: HT29 colon
RPMI-8226 leukemia = system: RPMI-8226 leukemia
TK-10 renal = system: TK-10 renal
HOP-92 NSCLC = system: HOP-92 NSCLC
MOLT-4 leukemia = system: MOLT-4 leukemia
OVCAR-5 ovarian = system: OVCAR-5 ovarian
T-47D breast = system: T-47D breast
HCT-116 colon = system: HCT-116 colon
M14 melanoma = system: M14 melanoma
SNB-19 CNS = system: SNB-19 CNS
NCI/ADR-RES ovarian = system: NCI/ADR-RES ovarian
UO-31 renal = system: UO-31 renal
SN12C renal = system: SN12C renal
HCT-15 colon = system: HCT-15 colon

## C=CC(=O)N1CCN(c2nc(OC[C@@H]3CCCN3C)nc3c2CCN(c2cccc4cccc(C)c24)C3)C[C@@H]1CC#N
COLO 205 colon
  GI50: 1230 nM
  TGI: 2490 nM
LOX IMVI melanoma
  GI50: 1590 nM
  TGI: 2950 nM
SR leukemia
  GI50: 134 nM
  TGI: 267 nM
K-562 leukemia
  GI50: 918 nM
  TGI: 2130 nM
ACHN renal
  GI50: 350 nM
  TGI: 1600 nM
U251 glioblastoma
  GI50: 1010 nM
  TGI: 2200 nM
SK-MEL-5 melanoma
  GI50: 1500 nM
  TGI: 2840 nM
NCI-H226 lung
  GI50: 1160 nM
  TGI: 2390 nM
IGROV1 ovarian
  GI50: 1390 nM
  TGI: 2700 nM
OVCAR-8 ovarian
  GI50: 1050 nM
  TGI: 2240 nM
HL-60(TB) leukemia
  GI50: 181 nM
  TGI: 322 nM
SF-295 CNS
  GI50: 1590 nM
  TGI: 2940 nM
MCF7 breast
  GI50: 834 nM
  TGI: 2090 nM
RXF 393 renal
  GI50: 189 nM
  TGI: 575 nM
UACC-62 melanoma
  GI50: 411 nM
  TGI: 1500 nM
KM12 colon
  GI50: 1060 nM
  TGI: 2260 nM
A498 renal
  GI50: 485 nM
  TGI: 1700 nM
HOP-62 NSCLC
  GI50: < 10 nM
  TGI: 1120 nM
BT-549 breast
  GI50: 265 nM
  TGI: 999 nM
HCC-2998 colon
  GI50: 1230 nM
  TGI: 2490 nM
A549 NSCLC
  GI50: 1310 nM
  TGI: 2610 nM
SF-268 CNS
  GI50: 495 nM
  TGI: 1670 nM
PC-3 prostate
  GI50: 759 nM
  TGI: 1980 nM
786-0 renal
  GI50: 705 nM
  TGI: 1990 nM
MALME-3M melanoma
  GI50: 1220 nM
  TGI: 2460 nM
OVCAR-3 ovarian
  GI50: 362 nM
  TGI: 1360 nM
SF-539 CNS
  GI50: 644 nM
  TGI: 1940 nM
CAKI-1 renal
  GI50: 422 nM
  TGI: 1430 nM
SK-MEL-2 melanoma
  GI50: 194 nM
  TGI: 595 nM
SW-620 colon
  GI50: 1310 nM
  TGI: 2620 nM
DU-145 prostate
  GI50: 1400 nM
  TGI: 2710 nM
MDA-MB-435 melanoma
  GI50: 1220 nM
  TGI: 2480 nM
UACC-257 melanoma
  GI50: 833 nM
  TGI: 2070 nM
OVCAR-4 ovarian
  GI50: 465 nM
  TGI: 1690 nM
SK-OV-3 ovarian
  GI50: 540 nM
  TGI: 1860 nM
NCI-H460 NSCLC
  GI50: 754 nM
  TGI: 2060 nM
MDA-MB-468 breast
  GI50: 367 nM
  TGI: 1020 nM
NCI-H322M lung
  GI50: 1440 nM
  TGI: 2760 nM
NCI-H23 lung
  GI50: < 10 nM
NCI-H522 lung
  GI50: 343 nM
  TGI: 1390 nM
CCRF-CEM leukemia
  GI50: 133 nM
  TGI: 265 nM
SK-MEL-28 melanoma
  GI50: 1620 nM
  TGI: 2980 nM
MDA-MB-231 breast
  GI50: 312 nM
  TGI: 1270 nM
HT29 colon
  GI50: 1260 nM
  TGI: 2540 nM
RPMI-8226 leukemia
  GI50: 193 nM
  TGI: 377 nM
TK-10 renal
  GI50: 505 nM
  TGI: 1700 nM
HOP-92 NSCLC
  GI50: 223 nM
  TGI: 687 nM
MOLT-4 leukemia
  GI50: 160 nM
  TGI: 299 nM
OVCAR-5 ovarian
  GI50: 1470 nM
  TGI: 2800 nM
T-47D breast
  GI50: 637 nM
  TGI: 2010 nM
HCT-116 colon
  GI50: 526 nM
  TGI: 1740 nM
M14 melanoma
  GI50: 1270 nM
  TGI: 2530 nM
SNB-19 CNS
  GI50: 1570 nM
  TGI: 2930 nM
NCI/ADR-RES ovarian
  GI50: 1610 nM
  TGI: 2970 nM
UO-31 renal
  GI50: 983 nM
  TGI: 2150 nM
SN12C renal
  GI50: 1240 nM
  TGI: 2500 nM
HCT-15 colon
  GI50: 1010 nM
  TGI: 2190 nM

## NC(=O)NO
HL-60(TB) leukemia
  GI50: 81900 nM
CCRF-CEM leukemia
  GI50: 76300 nM
